Assay [1] has as its system P388. Put plainly: Cytotoxicity against mouse P388 cells. The class given is functional. The settings on record: for EC50: read-out: ED50 (the source's name).
Assay [2] concerns P388. Put plainly: In vivo cytotoxicity against mouse P388 cells up to 8 mg/kg. In kind it is functional, organism-based. The arrangement: dose 8 mg/kg.

For 3 molecules, EC50 and Activity results are on record in ChEMBL document CHEMBL1151388, “Isolation and Structure of 14,15-Epoxyprieurianin From the South American Tree Guarea guidona” (1982).

Converted amounts (≈) assume the structure as drawn. The source made the active and inactive calls. The rule behind the calls is not given here.

As to `C=C1[C@H]([C@]2(C)[C@@H](OC(C)=O)CC(=O)O[C@](C)(COC(C)=O)[C@@H]2CC(=O)OC)[C@@H](OC=O)[C@H](OC(=O)[C@H](O)[C@H](C)CC)[C@]2(C)[C@@H](c3ccoc3)C[C@@H]3O[C@]132`, the EC50 in assay [1] was found to be 0.47 mg/L (≈ 0.629 µM). As to `CC1(C)C(=O)C=C[C@]2(C)[C@H]3CC[C@@]4(C)[C@H](c5ccoc5)OC(=O)[C@H]5O[C@]54[C@]3(C)C(=O)C[C@@H]12`, in assay [1], the result was inactive. As to `C=C1[C@@H]([C@@]2(C)[C@@H](OC(C)=O)CC(=O)O[C@](C)(COC(C)=O)[C@@H]2C(=O)OC)[C@@H](OC=O)[C@H](OC(=O)[C@H](O)[C@H](C)CC)[C@@]2(C)[C@H](c3ccoc3)CC(=O)[C@]12O` [PRIEURIANIN], in assay [1], the EC50 worked out at 4.4 mg/L (≈ 5.88 µM). Besides, the outcome in assay [2] was inactive.
